This test addresses T1, β-catenin (armadillo-repeat region of human β-catenin) (Homo sapiens, UniProt P35222).
T1 sequence (P35222 134-671 limits assumed): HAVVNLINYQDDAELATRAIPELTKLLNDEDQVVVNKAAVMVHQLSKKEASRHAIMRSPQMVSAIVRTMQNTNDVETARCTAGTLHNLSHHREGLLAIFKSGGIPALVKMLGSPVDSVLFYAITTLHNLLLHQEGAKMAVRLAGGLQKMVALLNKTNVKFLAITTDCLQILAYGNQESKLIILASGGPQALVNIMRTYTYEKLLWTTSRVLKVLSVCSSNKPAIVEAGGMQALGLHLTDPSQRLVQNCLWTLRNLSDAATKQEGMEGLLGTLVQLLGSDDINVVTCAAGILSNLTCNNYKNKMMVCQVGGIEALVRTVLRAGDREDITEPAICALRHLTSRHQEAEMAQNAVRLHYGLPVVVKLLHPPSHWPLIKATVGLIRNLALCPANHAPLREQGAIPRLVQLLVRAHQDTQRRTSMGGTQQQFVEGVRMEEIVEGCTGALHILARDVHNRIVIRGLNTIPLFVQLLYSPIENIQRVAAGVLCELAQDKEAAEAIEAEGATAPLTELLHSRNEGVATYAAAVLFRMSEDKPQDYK
Nature of the test: 1D 1H STD-NMR. Type of test: binding. As to conditions: 30 μM protein, 1 mM ligand; 100 mM Tris, 150 mM NaCl, 2 mM DTT, pH 7.4, 25 °C.

As for `O=C1OC2(c3ccccc31)c1cc(Br)c(O)c(Br)c1Oc1c2cc(Br)c(O)c1Br` [eosin Y], the “1D 1H STD-NMR” value was “predicted ligands fluorescein and eosin Y bind to the protein”.

The values above are taken from article PMC3557921 (Journal of Medicinal Chemistry, 2012).
